From paper PMC11965064, “Identification and verification of methylenetetrahydrofolate dehydrogenase 1-like protein as the binding target of natural product pseudolaric acid A” (Natural Products and Bioprospecting, 2025)

Target: T1, methylenetetrahydrofolate dehydrogenase 1-like (MTHFD1L) (Homo sapiens, UniProt Q6UB35)
T1 construct: MTHFD1L (68–978 AA), recombinant from E. coli, MBP tag cleaved with thrombin
T1 sequence (Q6UB35 68-978): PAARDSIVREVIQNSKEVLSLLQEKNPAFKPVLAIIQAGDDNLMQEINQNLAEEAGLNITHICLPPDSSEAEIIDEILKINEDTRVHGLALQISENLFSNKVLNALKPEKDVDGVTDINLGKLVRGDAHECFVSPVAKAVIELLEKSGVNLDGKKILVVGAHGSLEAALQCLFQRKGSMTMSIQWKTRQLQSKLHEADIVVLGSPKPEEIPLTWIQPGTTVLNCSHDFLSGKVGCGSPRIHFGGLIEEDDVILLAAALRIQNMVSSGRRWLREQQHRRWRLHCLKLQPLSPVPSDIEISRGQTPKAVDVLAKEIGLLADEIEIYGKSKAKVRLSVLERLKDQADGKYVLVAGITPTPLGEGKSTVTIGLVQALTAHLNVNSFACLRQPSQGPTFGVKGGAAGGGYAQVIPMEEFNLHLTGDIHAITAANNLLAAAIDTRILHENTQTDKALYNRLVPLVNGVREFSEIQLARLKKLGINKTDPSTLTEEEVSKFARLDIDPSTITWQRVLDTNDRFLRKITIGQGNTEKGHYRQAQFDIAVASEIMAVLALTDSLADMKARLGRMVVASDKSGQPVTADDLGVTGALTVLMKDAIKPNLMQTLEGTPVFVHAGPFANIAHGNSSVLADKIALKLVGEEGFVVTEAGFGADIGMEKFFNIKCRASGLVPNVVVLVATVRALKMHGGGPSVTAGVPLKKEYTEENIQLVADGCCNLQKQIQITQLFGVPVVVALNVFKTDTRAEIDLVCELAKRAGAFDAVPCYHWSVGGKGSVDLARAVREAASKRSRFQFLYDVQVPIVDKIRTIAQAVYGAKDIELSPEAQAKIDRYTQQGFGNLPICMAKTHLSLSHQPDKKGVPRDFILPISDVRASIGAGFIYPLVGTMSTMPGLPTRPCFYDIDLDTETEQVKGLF
Assay: SPR (Biacore T200, steady-state affinity); supported by NMR STD, DARTS and ABPP competition
Type: binding

Kd: ~4.05 µM
Structure (SMILES): CC(=O)O[C@]12CCC(C)=CC[C@]13CC[C@H]2[C@@](C)(/C=C/C=C(\C)C(=O)O)OC3=O [PAA, pseudolaric acid A]
